Experiments:
normal canines = format: in vivo, male mongrel dogs; conditions: IV infusion 8.66 pmol/kg/min
humans with stable HF = conditions: chronic subcutaneous BNP, human HF; cited from earlier work
human pGC-A = assay: cGMP production in HEK293 cells overexpressing human pGC-A; format: cell-based; conditions: 10^-10, 10^-8 and 10^-6 M, 10 min; RIA; vs no treatment; Figure 2A
[1] = cited from earlier work
[2] = tested on: diabetic mice and rats overexpressing the mouse Ren2-gene; conditions: long-term treatment, cited from earlier work
rodents = conditions: ANG1-7/MasR, rodents / diet-induced obesity; cited from earlier work
human MasR = assay: cAMP production in HEK293 cells overexpressing human MasR; format: cell-based; conditions: 10^-7, 10^-6 and 10^-5 M, 10 min; RIA; vs no treatment; Figure 2B
HTN = conditions: cited from earlier work

B-type natriuretic peptide [BNP]
mean arterial pressure (MAP) (normal canines; BNP n=5, NPA7 n=6, Figure 4A): reduced MAP significantly | symptoms and myocardial structure and function (humans with stable HF): improved symptoms and myocardial structure and function | cGMP production (pGC-A activation) (human pGC-A): significantly increasing concentrations of cGMP production

Angiotensin 1-7 [ANG1–7]
half-life time [1]: extremely short | in vivo degradation [1]: rapid in vivo degradation | reduction in MAP compared with BNP and NPA7 (normal canines; Figure 4A): modest | mean arterial pressure (MAP), during drug infusion (normal canines; n=5 (ANG1-7), Figure 4A): did not reduce MAP | cardiomyocyte hypertrophy, apoptosis and fibrosis ([2]; diabetic mice and rats overexpressing the mouse Ren2-gene): prevented | cardiac function in diabetic mice [2]: significantly improved | obesity-induced HTN and brown adipocyte differentiation (rodents): protection from obesity-induced HTN in rodents and induction of brown adipocyte differentiation | cAMP production (MasR activation) (human MasR): significantly increasing concentrations of cAMP production

sacubitril/valsartan
efficacy in HTN (HTN): demonstrated efficacy in HTN

From article PMC6512958 (Hypertension (Dallas, Tex. : 1979), 2019)
